Reference: ChEMBL document CHEMBL1125943, “Preparation of the geometric isomers of DDC, DDA, D4C and D4T as potential anti-HIV agents” (Bioorg Med Chem Lett, 1991)

Columns and labels:
[1] = tested on: CCRF-CEM; test: Compound was tested for cellular toxicity against HIV in CEM cells at concentration up to 100 uM; IA means inactive; format: cell-based; conditions: human
[2] = tested on: CCRF-CEM; test: The inhibitory dose against HIV in CEM cells was evaluated.; format: functional, Homo sapiens; conditions: read-out: ID50 (the source's name)

SMILES | Toxicity [1] | other results
Cc1cn([C@@H]2C=C[C@H](CO)O2)c(=O)[nH]c1=O | Not Active | –
Nc1ccn([C@@H]2CC[C@H](CO)O2)c(=O)n1 | – | IC50 ([2]; Homo sapiens, CCRF-CEM): 660 nM
Nc1ccn([C@@H]2C=C[C@H](CO)O2)c(=O)n1 | Not Active | –
Nc1ccn(C2CC[C@H](CO)O2)c(=O)n1 (single isomer, unassigned) | Not Active | –
Nc1ncnc2c1ncn2[C@H]1CC[C@@H](CO)O1 (single isomer, unassigned) | Not Active | –
Nc1ccn([C@H]2CC[C@@H](CO)O2)c(=O)n1 (stereo in doubt; form 1) [ZALCITABINE] | – | IC50 [2]: < 100 nM
Nc1ccn([C@H]2CC[C@@H](CO)O2)c(=O)n1 (stereo in doubt; form 2) [ZALCITABINE] | – | IC50 [2]: 40 nM
